Results from patent publication US20030109468A1, “Novel compounds that enhance dimerization of the subunits of HIV-1 reverse transcriptase having mutations associated with resistance to nonnucleoside reverse transcriptase inhibitors” (priority 2001, published 2003).
“Also recorded” adds a separate entry of the source. Read-outs that look alike come from different tables or passages of the source.

What was measured:
[1] = target: T1, lexA87-66 and Gal4AD-51 (p66 and p51 subunits of the HIV-1 RT) (Human immunodeficiency virus type 1 group M subtype B, UniProt P12497); type: cell-based
T1 construct: p66 corresponds to codons 1-560 and p51 corresponds to codons 1-440 in the RT gene; expressed in transfected cells; host or cells: Saccharomyces cerevisiae CTY10-5d
Experimental: Transformation of yeast and the qualitative β-galactosidase (β-gal) colony lift assay were as published (19). Quantification of protein-protein interactions was determined using the β-gal liquid assay performed on permeabilized yeast grown from three independent transformants using orthonitrophenyl-β-D-galactopyranoside as substrate (19).
(§1) CTY10-5d transformed constructs expressing p66 bait and p51 prey fusions were grown overnight to stationary phase in synthetic complete medium without histidine and leucine and containing 2% glucose (SC-His-Leu). […] Yeast were grown with aeration at 30° C. to OD600=0.5. The equivalent of 1 OD600 unit was pelleted for each treatment and subjected to a quantitative _-gal liquid assay.
To test the effects of NNRTIs on the association of the RT polypeptides we used a yeast genetic assay that measures RT heterodimerization (22). In this assay yeast expressing the p66 subunit of the HIV-1 RT fused to the C-terminus of lexa 87 (lexA87-66) and the p51 subunit fused to the Gal4AD (Gal4AD-51) constitutively interact, resulting in the activation of the expression from an integrated Lac Z reporter gene. To test for the effects of the NNRTIs on this interaction, 10 drugs representing 7 different NNRTI classes were added to the culture medium during growth of the yeast and β-gal levels were determined.

p66-His and GST-p51 = target: T2, p66-His and GST-p51 (Human immunodeficiency virus type 1 group M subtype B, UniProt P04585); type: binding, HIV-1
T2 construct: p66 corresponds to codons 1-560 and p51 corresponds to codons 1-440 in the RT gene; made in house; host or cells: E. coli M15 (p66-His) and BL21 (GST-p51), unpurified lysates
Experimental: Plasmids expressing wild-type and p66 mutants with a histidine tag at the C-terminus (p66-His) were constructed by cloning the p66 coding region into the SphI -BglII site of pQE-70 (Qiagen, Chatsworth, Calif.). […] Glutathione S-transferase tagged p51 (GST-p51) was prepared by subcloning the BamHI-SalI fragment from p51HXGADNOT into pGEX5X-3 (Amersham Pharmacia). Cells were induced and then lysed by the addition of 1 mg/ml of lysozyme to 1 ml of lysis buffer [50 mM sodium phosphate buffer (pH 7.8), 500 mM NaCl, 0.5% Nonidet P-40, 5 mM DTT, and 1 μg/ml each of pepstatin A, aprotinin and leupeptin] and clarified. Lysates were combined and incubated for 16 hrs at 4° C. The heterodimer was captured on Glutathione Sepharose 4B beads and unbound subunits were removed by washing with lysis buffer. Heterodimer bound to beads were resolved by SDS/PAGE. For quantification of RT activity, dimers were eluted from beads with 10 mM reduced glutathione in 50 mM Tris (pH 8.0). Samples were assayed for DNA polymerase activity on homopolymeric template-primers for various times, and the activity was determined from the initial slope of the linear phase of the time course.

p66/p51 heterodimer = target: T3, p66/p51 heterodimer (Human immunodeficiency virus type 1 group M subtype B, UniProt P12497); settings: cited from earlier work
T3 construct: The HIV-1 RT is an asymmetric dimer consisting of p66 and p51 polypeptides

HIV-1 = settings: cited from earlier work
HIV-1 RT = HIV-1 RT (Human immunodeficiency virus type 1 group M subtype B, UniProt P12497); type: biochemical; settings: exogenous RT assay, results not shown
[2] = target: T4, HIV-1 RT p66 bait and p51 prey fusions with the L234A change (Human immunodeficiency virus type 1 group M subtype B, UniProt P04585, L821A); type: cell-based; settings: L234A in one or both subunits
T4 construct: p66 corresponds to codons 1-560 and p51 corresponds to codons 1-440 in the RT gene; expressed in transfected cells; host or cells: Saccharomyces cerevisiae CTY10-5d
Experimental: as §1

[3] = target: T5, HIV-1 RT p66 bait and p51 prey fusions with the W401A change (Human immunodeficiency virus type 1 group M subtype B, UniProt P12497, W988A); type: cell-based; settings: W401A in one or both subunits
T5 construct: p66 corresponds to codons 1-560 and p51 corresponds to codons 1-440 in the RT gene; expressed in transfected cells; host or cells: Saccharomyces cerevisiae CTY10-5d
Experimental: as §1

[4] = target: T6, lexA87-66W401A and Gal4AD-HA-51W401A (Human immunodeficiency virus type 1 group M subtype B, UniProt P12497, W988A); assay: Coimmunoprecipitation of p66 and p51 in yeast lysates, W401A mutant; type: cell-based, HIV-1
T6 construct: p66 corresponds to codons 1-560 and p51 corresponds to codons 1-440 in the RT gene; expressed in transfected cells; host or cells: Saccharomyces cerevisiae CTY10-5d
Text: […]; Preparation of protein extracts and immunoprecipitation were as previously described (30) except for the use of anti-HA.11 monoclonal antibodies (clone 16B12; Covance, Princeton, N.J.) and Protein G-PLUS agarose beads (Santa Cruz Biotechnology; Santa Cruz, Calif.). Samples were resolved by SDS-PAGE. The lexA87-66 fusion protein was probed using monoclonal antibodies 7E5 which specifically detects p66 (31).
To directly test for induced heterodimerization by NNRTIs we subjected lysates from yeast expressing dimerization defective mutants to coimmunoprecipitation. […]. Hemagglutinin (HA) antibodies were used to immunoprecipitate the p51 prey and the presence of any bound p66 bait was then detected using anti-p66 specific antibodies. For coimmunoprecipitation of the p66 bait fusions, samples were divided into two with one part processed without added NNRTI while the other was maintained in drug at the same concentration used during growth of yeast. […] […].

[5] = target: T7, lexA87-66L234A and Gal4AD-HA-51L234A (Human immunodeficiency virus type 1 group M subtype B, UniProt P04585, L821A); type: cell-based, HIV-1; settings: yeast grown with efavirenz 1.6 μM or UC781 16 μM, compared to no drug
T7 construct: p66 corresponds to codons 1-560 and p51 corresponds to codons 1-440 in the RT gene; expressed in transfected cells; host or cells: Saccharomyces cerevisiae CTY10-5d
Text: Samples were resolved by SDS-PAGE.
Hemagglutinin (HA) antibodies were used to immunoprecipitate the p51 prey and the presence of any bound p66 bait was then detected using anti-p66 specific antibodies. For coimmunoprecipitation of the p66 bait fusions, samples were divided into two with one part processed without added NNRTI while the other was maintained in drug at the same concentration used during growth of yeast.

RT heterodimer = target: T8, RT heterodimer (Human immunodeficiency virus type 1 group M subtype B, UniProt P12497); settings: cited from earlier work
T8 construct: The HIV-1 RT is an asymmetric dimer consisting of p66 and p51 polypeptides

[6] = target: lexA87-66Y181C and wild type Gal4AD-51 (Human immunodeficiency virus type 1 group M subtype B, UniProt P12497, Y768C); type: cell-based, HIV-1; settings: yeast grown in the presence of drug
Experimental: as §1

lexA87 and Gal4AD = assay: Y2H specificity control, empty vectors pSH21 and pGADNOT; type: cell-based; settings: serial dilutions, even in the presence of 15 μM of drug
Text: (§2) The specificity of the β-gal enhancement by NNRTIs was investigated. […].

[7] = test system: moloney murine leukemia virus reverse transcriptase with elongation factor release factor 1 and other unrelated pairs; assay: Y2H specificity control, unrelated protein-protein interaction pairs; type: cell-based
Text: as §2

[8] = target: p66W401A-His and GST-p51W401A (Human immunodeficiency virus type 1 group M subtype B, UniProt P12497, W988A); assay: In vitro heterodimerization in bacterial lysates, W401A mutant
Experimental: The heterodimerization of bacterially expressed wild-type p66-His and GST-p51 (or mutants) was assessed in bacterial lysates as described previously (22). […] Lysates were washed 4 times with lysis buffer using a centricon-YM-50 filter device (Millipore Corporation, Bedford, Mass.) to remove unbound drug. 5 μg of the corresponding RT subunit was applied to the washed lysates (in 500 μl) and incubated for 1.5 hr at 40C. Heterodimers were captured onto beads (22), resolved by SDS/PAGE and detected using RT antibodies (monoclonal antibody 5B2) (31).

[9] = target: HIV-1 RT with Y181C mutation in the p66 subunit (Human immunodeficiency virus type 1 group M subtype B, UniProt P12497, Y768C); settings: cited from earlier work
[10] = yeast expressing lexA87-66 and Gal4AD-51 grown with drug
[11] = bacterial lysates, overnight at 4° C.

2′,5′-bis-O-(tert-butylidimethylsilyl) -3′-spiro-5″-4″-amino-1″,2″-oxothiole-2″,2″-dioxide)]-b-D- pentofuranosyl [TSAO]
inhibition of β-gal activity in the Y2H system ([1]; preliminary tests, data not shown, uptake by yeast not ruled in): no inhibition of β-gal activity | effect on heterodimerization in in vitro binding assays (p66-His and GST-p51; preliminary tests, data not shown): reduce heterodimerization | destabilization of the p66/p51 heterodimer (p66/p51 heterodimer): destabilization of the p66/p51 heterodimer; also recorded: destabilize the p66/p51 heterodimer

COc1ccc2c(c1)N(C(=O)OC(C)C)[C@@H](CSC)C(=S)N2 [HBY 097, (S)-4-isopropoxycarbonyl-6-methoxy-3-(methylthiomethyl)-3,4-dihydroquinoxaline-2(1H)-thione]
enhancement of β-gal activity, in words / relative potency [1, 10]: most potent | inhibition of HIV-1 replication in vitro (HIV-1): extremely potent inhibitors

CCn1c(=O)c(C)cn([C@@H]2O[C@H](CO[Si](C)(C)C(C)(C)C)C3(OS(=O)(=O)C=C3N)[C@H]2O[Si](C)(C)C(C)(C)C)c1=O (stereo partly drawn) [TSAOe^3T]
destabilization of the p66/p51 heterodimer (p66/p51 heterodimer): more modest destabilization only detectable in the presence of denaturants

Cc1occc1C(=S)Nc1ccc(Cl)c(/C=N/OC(C)(C)C)c1 [UC10]
enhancement of dimerization of GST-p51 and p66-His in vitro, in words (p66-His and GST-p51; [11]): poor dimerization inducers

CC(C)OC(=O)c1cc(NC(=S)OC(C)C)ccc1Cl [UC38]
concentration of drug that mediates a 5-fold increase in β-gal activity, rank ([1]; Y2H assay, results not shown): least active | RT inhibitory activity (50% inhibitory concentration), rank (HIV-1 RT): least active

CC(C)=CCOc1cc(NC(=S)c2ccoc2C)ccc1Cl [UC781, N-[4-chloro-3-(3-methyl-2-butenyloxy)phenyl]-2-methyl-3-furancarbothioamide]
enhancement of β-gal activity, in words / relative potency [1, 10]: second most potent drug | enhancement of β-gal activity, L234A mutant, in words [2]: no enhancement | enhancement of β-gal activity, W401A mutant, in words [3]: could also enhance the β-gal activity | p66 bait coimmunoprecipitated with p51 prey, W401A ([4]; yeast grown with efavirenz 1.6 μM or UC781 16 μM, compared to no drug): heterodimer formation | p66 bait coimmunoprecipitated with p51 prey, L234A [5]: not for the L234A mutant | enhancement of dimerization of GST-p51 and p66-His in vitro, in words (p66-His and GST-p51; [11]): poor dimerization inducers | inhibition of HIV-1 replication in vitro (HIV-1): extremely potent inhibitors | binding to the RT heterodimer (RT heterodimer): bind very tightly | dissociation rates (Koff) (RT heterodimer): very slow dissociation rates

CC(C)Nc1cccnc1N1CCN(C(=O)c2cc3cc(NS(C)(=O)=O)ccc3[nH]2)CC1 [delavirdine, piperazine, 1-[3-[(1-methyl-ethyl)amino]-2-pyridinyl]-4-[[5-[(methysulfonyl)amino]-1H-indol-2-yl]carbonyl]-, monomethanesulfonate]
enhancement of β-gal activity, in words / relative potency [1]: devoid of P-gal enhancing activity | enhancement of dimerization of GST-p51 and p66-His in vitro, in words (p66-His and GST-p51): inactive in vitro

O=C1Nc2ccc(Cl)cc2[C@@](C#CC2CC2)(C(F)(F)F)O1 [efavirenz, (S)6-chloro-4(cyclopropylethynyl)-1,4-dihydro-4-(trifluoromethyl)-2H-3,1-benzoxazin-2-one]
β-gal enhancement with Y181C in the p66 bait [6]: significant level of β-gal enhancement was still retained | enhancement of β-gal activity, W401A mutant, in words [3]: dramatic increase in β-gal activity | increase in β-gal activity, empty vectors (lexA87 and Gal4AD): no increase in β-gal activity | effect on β-gal activity of unrelated protein-protein interaction pairs [7]: no enhancement or inhibition of β-gal activity | heterodimer in lysates of yeast grown without drug, drug added during coimmunoprecipitation, W401A [4]: significantly more heterodimer present | p66 bait coimmunoprecipitated with p51 prey, W401A [4]: clear increase | binding to the RT heterodimer (RT heterodimer): bind very tightly | molar excess of drug giving a significant increase in dimer formation, W401A [8]: 10 fold molar excess

Cc1ccnc2c1NC(=O)c1cccnc1N2C1CC1 [nevirapine, 11-cyclopropyl-5,11,-dihydro-4-methyl-6H-dipyrido[3,2-b:2′3′-][1,4] diazepin-6-one]
β-gal enhancement with Y181C in the p66 bait [6]: totally negated the enhancement effect | increase in resistance conferred by Y181C [9]: > 100 fold
